In patent US20070025974A1, “Amylases producing an altered immunogenic response and methods of making and using the same” (priority 2003, published 2007):

Test system: human CD4+ T-cells
Test: I-MUNE assay: T-cell proliferation (tritiated thymidine) with dendritic cells and CD4+ T-cells
Assay type: cell-based
Details: approximately 5 Lf/mL

Substance: tetanus toxoid
- positive control proliferative response: robust positive control responses
